Reference: ChEMBL document CHEMBL5291721, “A preclinical secondary pharmacology resource illuminates target-adverse drug reaction associations of marketed drugs” (Nat Commun, 2023)

Experiments:
[1] = biological target: T1, Prostaglandin G/H synthase 1 (Rattus norvegicus, UniProt Q63921); type: functional
T1 sequence (Q63921 whole entry): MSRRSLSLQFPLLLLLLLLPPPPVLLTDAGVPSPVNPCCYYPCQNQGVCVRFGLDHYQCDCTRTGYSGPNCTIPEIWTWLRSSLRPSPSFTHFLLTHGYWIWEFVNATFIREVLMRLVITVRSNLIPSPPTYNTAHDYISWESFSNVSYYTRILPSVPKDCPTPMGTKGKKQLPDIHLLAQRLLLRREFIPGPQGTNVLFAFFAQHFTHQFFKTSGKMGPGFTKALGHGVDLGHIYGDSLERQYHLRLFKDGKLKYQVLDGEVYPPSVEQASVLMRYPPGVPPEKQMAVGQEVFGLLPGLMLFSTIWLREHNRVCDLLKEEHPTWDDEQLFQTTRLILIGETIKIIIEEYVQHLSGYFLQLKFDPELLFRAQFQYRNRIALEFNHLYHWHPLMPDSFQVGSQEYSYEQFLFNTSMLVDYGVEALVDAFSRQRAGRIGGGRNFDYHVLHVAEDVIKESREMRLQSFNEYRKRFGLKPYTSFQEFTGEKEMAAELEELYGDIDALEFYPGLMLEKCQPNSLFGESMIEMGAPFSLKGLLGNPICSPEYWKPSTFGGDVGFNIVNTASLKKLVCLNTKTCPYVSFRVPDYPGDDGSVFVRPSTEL

[2] = biological target: T2, Alpha-2A adrenergic receptor (Homo sapiens, UniProt P08913); type: functional, cell-based
T2 sequence (P08913 whole entry): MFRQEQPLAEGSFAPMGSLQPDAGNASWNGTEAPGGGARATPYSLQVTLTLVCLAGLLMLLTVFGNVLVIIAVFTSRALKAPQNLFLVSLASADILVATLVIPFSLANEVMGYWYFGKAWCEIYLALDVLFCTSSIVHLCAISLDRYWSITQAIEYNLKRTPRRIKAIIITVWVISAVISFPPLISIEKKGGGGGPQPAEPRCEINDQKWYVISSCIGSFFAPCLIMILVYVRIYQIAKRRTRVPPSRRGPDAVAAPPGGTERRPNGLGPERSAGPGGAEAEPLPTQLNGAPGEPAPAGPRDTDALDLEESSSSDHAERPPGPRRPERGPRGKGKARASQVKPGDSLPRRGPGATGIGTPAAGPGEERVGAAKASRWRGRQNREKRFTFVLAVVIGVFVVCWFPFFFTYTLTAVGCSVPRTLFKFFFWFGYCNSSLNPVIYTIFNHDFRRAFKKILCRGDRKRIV

[3] = biological target: Adenosine receptor A2a (Homo sapiens, UniProt P29274)
Adenosine receptor A2a, sequence (P29274 whole entry): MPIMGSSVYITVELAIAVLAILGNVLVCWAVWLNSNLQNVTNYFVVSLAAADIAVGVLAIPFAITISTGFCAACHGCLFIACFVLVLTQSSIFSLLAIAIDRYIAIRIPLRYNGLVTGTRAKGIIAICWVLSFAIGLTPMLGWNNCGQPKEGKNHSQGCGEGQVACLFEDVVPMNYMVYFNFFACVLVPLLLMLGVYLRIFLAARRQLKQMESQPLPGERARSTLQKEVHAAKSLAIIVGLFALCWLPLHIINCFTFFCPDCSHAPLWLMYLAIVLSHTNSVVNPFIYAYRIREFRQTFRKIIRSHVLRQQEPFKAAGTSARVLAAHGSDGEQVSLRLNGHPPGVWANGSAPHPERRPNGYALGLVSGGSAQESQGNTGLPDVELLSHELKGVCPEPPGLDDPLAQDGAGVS

[4] = biological target: T2, Alpha-2A adrenergic receptor; type: functional, cell-based; remark: listed apart in the source
[5] = biological target: T3, Amine oxidase [flavin-containing] A (Homo sapiens, UniProt P21397); type: functional
T3 sequence (P21397 whole entry): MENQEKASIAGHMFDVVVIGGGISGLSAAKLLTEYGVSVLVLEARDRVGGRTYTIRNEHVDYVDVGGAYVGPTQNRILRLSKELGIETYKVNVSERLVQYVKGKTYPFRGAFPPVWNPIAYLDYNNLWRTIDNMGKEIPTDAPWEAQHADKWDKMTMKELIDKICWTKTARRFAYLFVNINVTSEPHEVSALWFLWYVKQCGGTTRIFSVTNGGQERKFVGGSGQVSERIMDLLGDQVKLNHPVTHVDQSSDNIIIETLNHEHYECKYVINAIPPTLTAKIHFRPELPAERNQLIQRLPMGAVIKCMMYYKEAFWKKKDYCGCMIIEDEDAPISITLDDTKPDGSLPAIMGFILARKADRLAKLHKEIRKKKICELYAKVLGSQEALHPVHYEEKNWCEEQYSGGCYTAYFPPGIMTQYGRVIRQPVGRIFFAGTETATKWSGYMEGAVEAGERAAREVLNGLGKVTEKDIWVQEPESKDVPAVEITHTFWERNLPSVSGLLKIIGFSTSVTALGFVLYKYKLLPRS

[6] = biological target: T4, 5-hydroxytryptamine receptor 1A (Homo sapiens, UniProt P08908); type: functional, cell-based
T4 sequence (P08908 whole entry): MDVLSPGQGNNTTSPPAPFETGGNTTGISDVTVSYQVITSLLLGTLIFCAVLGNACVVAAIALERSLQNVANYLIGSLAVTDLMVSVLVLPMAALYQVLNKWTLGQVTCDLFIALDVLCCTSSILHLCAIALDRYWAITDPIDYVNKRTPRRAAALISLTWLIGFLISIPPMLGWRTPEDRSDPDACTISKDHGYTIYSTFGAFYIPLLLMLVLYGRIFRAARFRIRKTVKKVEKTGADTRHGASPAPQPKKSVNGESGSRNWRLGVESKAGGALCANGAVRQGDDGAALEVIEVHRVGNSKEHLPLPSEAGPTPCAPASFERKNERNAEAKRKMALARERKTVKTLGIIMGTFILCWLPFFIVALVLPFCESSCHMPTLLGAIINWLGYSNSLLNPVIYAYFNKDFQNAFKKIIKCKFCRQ

[7] = biological target: T5, Type-1 angiotensin II receptor (Homo sapiens, UniProt P30556)
T5 sequence (P30556 whole entry): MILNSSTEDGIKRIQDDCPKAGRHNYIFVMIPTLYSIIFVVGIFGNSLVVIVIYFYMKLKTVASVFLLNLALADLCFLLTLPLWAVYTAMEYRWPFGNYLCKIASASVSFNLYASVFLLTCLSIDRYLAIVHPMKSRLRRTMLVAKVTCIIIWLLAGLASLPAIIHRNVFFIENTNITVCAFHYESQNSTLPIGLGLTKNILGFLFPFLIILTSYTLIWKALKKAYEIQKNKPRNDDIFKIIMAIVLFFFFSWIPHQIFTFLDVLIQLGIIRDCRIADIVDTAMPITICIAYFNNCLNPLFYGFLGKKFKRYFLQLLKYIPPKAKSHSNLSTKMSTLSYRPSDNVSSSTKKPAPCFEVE

[8] = biological target: T6, Adenosine receptor A1 (Homo sapiens, UniProt P30542)
T6 sequence (P30542 whole entry): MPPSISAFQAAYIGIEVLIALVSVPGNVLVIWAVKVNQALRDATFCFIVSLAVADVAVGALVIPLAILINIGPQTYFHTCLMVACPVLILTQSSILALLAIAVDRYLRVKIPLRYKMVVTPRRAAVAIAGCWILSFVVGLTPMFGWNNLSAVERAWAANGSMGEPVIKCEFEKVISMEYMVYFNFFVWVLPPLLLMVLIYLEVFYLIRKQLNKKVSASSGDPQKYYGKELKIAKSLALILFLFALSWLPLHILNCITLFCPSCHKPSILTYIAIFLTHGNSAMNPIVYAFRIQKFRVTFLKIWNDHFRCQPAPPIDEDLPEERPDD
Further: assay procedure not described here.

Row | SMILES | AC50 [1] | AC50 [2] | AC50 [3] | AC50 [4] | AC50 [5] | AC50 [6] | AC50 [7] | AC50 [8]
1 | Cc1c(C(=O)NN2CCCCC2)nn(-c2ccc(Cl)cc2Cl)c1-c1ccc(Cl)cc1 [RIMONABANT] | > 30 µM | > 30 µM | > 30 µM | > 30 µM | > 30 µM | > 30 µM | 16.9 µM | > 30 µM
2 | Clc1ccc2nsnc2c1NC1=NCCN1 [TIZANIDINE] | > 30 µM | – | > 30 µM | – | > 10 µM | > 30 µM | > 30 µM | > 30 µM
3 | COc1ccccc1OCC(O)CN1CCN(CC(=O)Nc2c(C)cccc2C)CC1 (stereo not drawn) [RANOLAZINE] | > 30 µM | 7.7 µM | > 30 µM | > 30 µM | > 30 µM | > 30 µM | > 30 µM | > 30 µM
4 | Cc1cccc(Nc2ccccc2C(=O)O)c1C [MEFENAMIC ACID] | 0.26 µM | > 10 µM | > 10 µM | > 10 µM | > 10 µM | > 10 µM | > 10 µM | > 10 µM
5 | CCOC(=O)[C@H](CCc1ccccc1)N[C@@H](C)C(=O)N1[C@H](C(=O)O)C[C@@H]2CCC[C@@H]21 | > 30 µM | > 10 µM | > 30 µM | > 10 µM | > 10 µM | > 10 µM | > 30 µM | > 30 µM
6 | C[C@@H](O)[C@H]1C(=O)N2C(C(=O)O)=C(S[C@@H]3CN[C@H](C(=O)N(C)C)C3)[C@H](C)[C@H]12 [MEROPENEM] | 33.4 µM | > 300 µM | > 300 µM | > 300 µM | > 300 µM | > 300 µM | > 300 µM | > 300 µM
7 | CN(C)/N=N/c1[nH]cnc1C(N)=O [DACARBAZINE] | > 10 µM | > 10 µM | > 10 µM | > 10 µM | > 10 µM | > 10 µM | > 10 µM | > 10 µM
8 | C1CCC(C(CC2CCCCN2)C2CCCCC2)CC1 (stereo not drawn) [PERHEXILINE] | > 30 µM | – | > 30 µM | 11 µM | > 30 µM | 9.1 µM | > 30 µM | > 30 µM
9 | CS(=O)(=O)c1ccc(C2=C(c3ccccc3)C(=O)OC2)cc1 [ROFECOXIB] | – | > 30 µM | > 30 µM | > 30 µM | > 10 µM | > 30 µM | > 30 µM | > 30 µM
10 | C[N+]1(C)CCC(OC(=O)C(O)(c2ccccc2)C2CCCC2)C1 (stereo not drawn) [GLYCOPYRRONIUM BROMIDE] | – | – | – | – | – | – | > 30 µM | –
11 | COc1cc(NC(C)CCCN)c2ncccc2c1 (stereo not drawn) [PRIMAQUINE] | > 30 µM | – | > 30 µM | – | – | – | > 30 µM | > 30 µM
12 | C[C@H]1CNCCc2ccc(Cl)cc21 [LORCASERIN] | > 30 µM | 7.2 µM | > 30 µM | > 30 µM | > 30 µM | > 30 µM | > 30 µM | > 30 µM
13 | Cn1nnc2c(C(N)=O)ncn2c1=O [TEMOZOLOMIDE] | > 30 µM | > 30 µM | > 30 µM | > 30 µM | > 30 µM | > 30 µM | > 30 µM | > 30 µM
14 | CCCN1C[C@H](CSC)C[C@@H]2c3cccc4[nH]cc(c34)C[C@H]21 [PERGOLIDE] | > 30 µM | – | > 30 µM | – | > 30 µM | – | > 30 µM | > 30 µM
15 | C[C@]12CCC(=O)C=C1CC[C@@H]1[C@@H]2[C@@H](O)C[C@@]2(C)[C@H]1CC[C@]2(O)C(=O)CO [HYDROCORTISONE] | > 30 µM | > 10 µM | > 30 µM | > 10 µM | > 10 µM | > 10 µM | > 30 µM | > 30 µM
16 | COc1ccc(CC(C)(C)NC[C@H](O)c2cc(O)cc3c2OCC(=O)N3)cc1 [OLODATEROL] | 17.5 µM | 10 µM | > 30 µM | > 30 µM | > 30 µM | > 30 µM | > 30 µM | > 30 µM
17 | CN1C(=O)CCS(=O)(=O)C1c1ccc(Cl)cc1 (stereo not drawn) [CHLORMEZANONE] | > 10 µM | > 10 µM | > 10 µM | > 10 µM | > 30 µM | > 10 µM | > 10 µM | > 10 µM
18 | CC(C)C[C@H]1C(=O)N2CCC[C@H]2[C@]2(O)O[C@](NC(=O)[C@@H]3C=C4c5cccc6[nH]c(Br)c(c56)C[C@H]4N(C)C3)(C(C)C)C(=O)N12 [BROMOCRIPTINE] | > 30 µM | – | > 30 µM | – | > 30 µM | 3.1 µM | > 30 µM | > 30 µM
19 | O=C(Cc1ccc(-c2ccccc2)cc1)Nc1ccccn1 [DIFENPIRAMIDE] | – | > 30 µM | – | > 30 µM | > 30 µM | > 30 µM | – | –
20 | CC(=O)Nc1ccc(O)cc1 [ACETAMINOPHEN] | > 30 µM | > 30 µM | > 30 µM | – | > 30 µM | > 30 µM | > 30 µM | > 30 µM
21 | O=C(O)c1cc(O)ccc1O [GENTISIC ACID] | 18 µM | – | – | – | – | – | – | –
22 | Cc1ccc(-c2cc(C(F)(F)F)nn2-c2ccc(S(N)(=O)=O)cc2)cc1 [CELECOXIB] | – | > 10 µM | > 10 µM | > 10 µM | > 10 µM | > 10 µM | > 10 µM | > 10 µM
